Results reported in patent publication US11684067B2, “Generation of peroxyformic acid through polyhydric alcohol formate” (priority 2014, dated 2023).

How the values were obtained:
[1] = system: Aspergillus brasiliensis ATCC 16404; assay: Fungicidal/yeasticidal activity of ester PFA versus POAA (Example 22); format: cell-based; details: 20°C, dirty
Source text: Canidia and Aspergillus pathogens were used to evaluate the micro efficacy of ester PFA generated according to methods of the present invention in comparison to POAA.

[2] = system: Bacillus subitilisATCC 19659; assay: Sporicidal activity of ester PFA versus POAA (Example 21); format: cell-based, Bacillus subtilis; details: for Average CFU/mL / Log10 Growth / Log10 Reduction: 20°C, dirty
Source text: Bacillus pathogens were used to evaluate the micro efficacy of ester PFA generated according to methods of the present invention in comparison to POAA.

[3] = Laundry disinfection efficacy, EPA protocol on 100% cotton carriers (Table 38); format: cell-based; details: pH 7.7, 500 ppm hard water; for Log survivors (CFU/carrier) / Log reduction: 18 ppm, 40° C., 5 minute exposure; for Log survivors (CFU/carrier): cotton carriers; for Log reduction: vs water control
Experimental: The microbial efficacy of peroxyformic acid was also tested following the EPA protocol on 100% cotton carriers against a water control. The test conditions were pH 7.7, 500 ppm hard water, 40° C. and 5 minute exposure time. In comparison, the performance of peracetic acid was also tested under the same conditions.

[4] = system: Enterococcus hirae ATCC 10541; assay: Bactericidal activity of ester PFA versus POAA, EN 1276, dirty conditions; format: cell-based; details: 20°C
Source text: (§1) Additional Staphylococcus, Enterococcus and Pseudomonas pathogens were used to evaluate the micro efficacy of ester PFA generated according to methods of the present invention in comparison to POAA.

[5] = system: Staphylococcus aureus ATCC 6538; assay: as above; format: cell-based; details: 20°C
Source text: as §1

[6] = system: Pseudomonas aeruginosa ATCC 15442; assay: as above; format: cell-based; details: 20°C
Source text: as §1

[7] = Stability of PFA in use solution in the presence of soils, iodometric titration; format: physicochemical; details: 500 ppm PFA in 500 ppm hard water with soil load, ambient; FIG. 22
Experimental: To 200 g of 500 ppm hard water containing individual soil load at the desired concentration, was added PFA stock solution to target PFA concentration of 500 ppm. The resulting solution was stored under ambient conditions, and the level of PFA was monitored by iodometric titration at the specific time point.

[8] = 200 ppm PFA pH 6.15 / 245 ppm POAA pH 6.56, 5 minutes
[9] = 200 ppm PFA pH 6.15 / 245 ppm POAA pH 6.56, 10 minutes
[10] = 200 ppm PFA pH 6.15 / 245 ppm POAA pH 6.56, 15 minutes
[11] = 300 ppm PFA pH 6.21 / 368 ppm POAA pH 6.63, 5 minutes
[12] = 300 ppm PFA pH 6.21 / 368 ppm POAA pH 6.63, 10 minutes
[13] = 300 ppm PFA pH 6.84 / 368 ppm POAA pH 6.73 (molar equivalent), 5 minutes
[14] = 300 ppm PFA pH 6.84 / 368 ppm POAA pH 6.73 (molar equivalent), 10 minutes
[15] = 400 ppm PFA pH 7.19 / 490 ppm POAA pH 6.78 (molar equivalent), 5 minutes
[16] = 400 ppm PFA pH 7.19 / 490 ppm POAA pH 6.78 (molar equivalent), 10 minutes
[17] = Klebsiella pneumoniae ATCC 4352
[18] = Staphylococcus aureus ATCC 6538
[19] = 20 ppm PFA pH 6.61 / 24.8 ppm POAA pH 6.73, 5 minutes
[20] = 30 ppm PFA pH 6.74 / 37.6 ppm POAA pH 6.90, 5 minutes
[21] = 50 ppm PFA pH 6.60 / 62.4 ppm POAA pH 6.98, 5 minutes

In the case of O=COO [PFA, peroxyformic acid], the “Log10 Growth” value [1, 8] is reported as 4.20 Log10, the “Log10 Reduction” value [1, 8] is reported as 1.54 Log10 and the “Average CFU/mL” value [1, 9] is reported as 1.75E+03 CFU/mL. The “Log10 Growth” value [1, 9] was 3.24 Log10, the “Log10 Reduction” value [1, 9] was 2.50 Log10 and the “Average CFU/mL” value [1, 10] was 3.85E+02 CFU/mL. For the same molecule, the “Log10 Growth” value [1, 10] was 2.59 Log10, the “Log10 Reduction” value [1, 10] was 3.16 Log10 and the “Average CFU/mL” value [1, 11] was 4.10E+02 CFU/mL. For the same molecule, the “Log10 Growth” value [1, 11] was 2.61 Log10, the “Log10 Reduction” value [1, 11] was 3.13 Log10 and the “Average CFU/mL” value [1, 12] was 1.20E+02 CFU/mL. For the same molecule, the “Log10 Growth” value [1, 12] was 2.08 Log10, the “Log10 Reduction” value [1, 12] was 3.67 Log10 and the “reduction in B. subtillis spores compared with POAA” value ([2]; 5 and 10 minutes, lower concentrations than POAA, FIG. 17) was “increased reduction”. For the same molecule, the “Average CFU/mL” value [2, 13] was 3.25E+03 CFU/mL, the “Log10 Growth” value [2, 13] was 3.51 Log10 and the “Log10 Reduction” value [2, 13] was 2.28 Log10. The “Average CFU/mL” value [2, 14] was 4.50E+01 CFU/mL, the “Log10 Growth” value [2, 14] was 1.65 Log10 and the “Log10 Reduction” value [2, 14] was 4.14 Log10. The “Average CFU/mL” value [2, 15] was 3.45E+03 CFU/mL, the “Log10 Growth” value [2, 15] was 3.54 Log10 and the “Log10 Reduction” value [2, 15] was 2.26 Log10. For the same molecule, the “Average CFU/mL” value [2, 16] was 1.30E+03 CFU/mL, the “Log10 Growth” value [2, 16] was 3.11 Log10 and the “Log10 Reduction” value [2, 16] was 2.68 Log10. The “Log survivors (CFU/carrier)” value [3, 17] was under 1.00 log10 CFU/carrier, the Log reduction [3, 17] was over 5.12 and the “Log survivors (CFU/carrier)” value [3, 18] was 1.63 log10 CFU/carrier. The Log reduction [3, 18] was 5.22, the “kill compared with peracetic acid” value ([3]; 40°C, 5 minute, less than half of the dose of peracetic acid) was “significant better kill than peracetic acid” and the “Average CFU/mL” value [4, 19] was 6.30E + 03 CFU/mL. The “Log10 Growth” value [4, 19] was 3.80 Log10, the “Average CFU/mL” value [4, 20] was 2.15E + 02 CFU/mL and the “Log10 Growth” value [4, 20] was 2.33 Log10. The “Average CFU/mL” value [4, 21] was under 140 CFU/mL, the “Log10 Growth” value [4, 21] was under 2.15 Log10 and the “Average CFU/mL” value [5, 19] was under 140 CFU/mL. The “Log10 Growth” value [5, 19] was under 2.15 Log10, the “Average CFU/mL” value [5, 20] was under 140 CFU/mL and the “Log10 Growth” value [5, 20] was under 2.15 Log10. The “Average CFU/mL” value [5, 21] was under 140 CFU/mL, the “Log10 Growth” value [5, 21] was under 2.15 Log10 and the “Average CFU/mL” value [6, 19] was under 140 CFU/mL. For the same molecule, the “Log10 Growth” value [6, 19] was under 2.15 Log10, the “Average CFU/mL” value [6, 20] was under 140 CFU/mL and the “Log10 Growth” value [6, 20] was under 2.15 Log10. For the same molecule, the “Average CFU/mL” value [6, 21] was under 140 CFU/mL, the “Log10 Growth” value [6, 21] was under 2.15 Log10 and the “impact of soils on the stability of PFA” value [7] was “no impact”.
